# Assay results as given in patent publication US5118697A, “Cyclic beta-ketoamide ACAT inhibitors” (Warner-Lambert Company, priority 1991, dated 1992).
# pIC50: −log10 of the molar value.
# Biological target: T1, acyl-CoA: cholesterol acyltransferase (ACAT) (Oryctolagus cuniculus, UniProt G1SFD9)
# T1 construct: tissue preparation containing rabbit intestinal microsomes; from tissue; host or cells: rabbit intestinal microsomes
# T1 sequence (G1SFD9 1-524): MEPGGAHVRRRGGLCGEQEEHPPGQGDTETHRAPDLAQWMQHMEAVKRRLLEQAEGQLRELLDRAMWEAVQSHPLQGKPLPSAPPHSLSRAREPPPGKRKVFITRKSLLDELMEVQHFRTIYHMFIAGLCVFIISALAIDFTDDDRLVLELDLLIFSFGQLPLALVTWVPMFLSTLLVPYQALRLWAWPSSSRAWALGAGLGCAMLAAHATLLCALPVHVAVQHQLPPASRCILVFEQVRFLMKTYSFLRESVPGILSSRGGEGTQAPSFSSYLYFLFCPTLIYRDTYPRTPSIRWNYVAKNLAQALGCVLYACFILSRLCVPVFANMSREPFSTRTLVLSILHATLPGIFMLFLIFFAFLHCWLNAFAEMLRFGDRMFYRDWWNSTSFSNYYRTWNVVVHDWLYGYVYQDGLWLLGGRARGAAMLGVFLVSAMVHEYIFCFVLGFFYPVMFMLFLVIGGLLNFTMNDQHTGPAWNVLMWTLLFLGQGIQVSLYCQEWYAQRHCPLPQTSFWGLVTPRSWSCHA
# Test: in vitro ACAT inhibition test: radiolabeled cholesterol oleate formed from radiolabeled oleic acid in rabbit intestinal microsomes
# Type: biochemical
# Text: As shown by the data presented below in Table 1, the compounds of the present invention are potent inhibitors of the enzyme acyl-CoA: cholesterol acyltransferase (ACAT), and are thus effective in inhibiting the esterification and transport of cholesterol across the intestinal cell wall. The compounds of the present invention are thus useful in pharmaceutical formulations for the treatment of hypercholesterolemia or atherosclerosis.
# The ability of representative compounds of the present invention to inhibit ACAT was measured using an in vitro test more fully described in F. J. Field and R. G. Salone, Biochemica et Biophysica 712:557-570 (1982). The test assesses the ability of a test compound to inhibit the acylation of cholesterol by oleic acid by measuring the amount of radiolabeled cholesterol oleate formed from radiolabeled oleic acid in a tissue preparation containing rabbit intestinal microsomes.
row,pIC50,Structure (SMILES)
1,6.03,"CC(C)c1cccc(C(C)C)c1NC(=O)C1CCCC(Cc2ccccn2)(Cc2ccccn2)C1=O (stereo not drawn) [Example 5, N-[2,6-bis(1-methylethyl)phenyl]-2-oxo-3,3-bis(2-pyridinylmethyl)cyclohexanecarboxamide]"
2,7.14,"CC(C)c1cccc(C(C)C)c1NC(=O)C1CCCC(CCCCCOc2ccccc2)(c2ccccc2)C1=O (stereo not drawn) [Example 6, N-[2,6-bis (1-methylethyl)phenyl]-2-oxo-3-(5-phenoxypentyl)-3-phenylcyclohexanecarboxamide]"

# The next lines start with the molecule.
row,Structure (SMILES),pIC50
1,CC(C)c1cccc(C(C)C)c1NC(=O)C1CCC(c2ccccc2)(c2ccccn2)C1=O (stereo not drawn) [Example 1],< 6.00
2,"CC(C)c1cccc(C(C)C)c1NC(=O)C1CCCC(c2ccccc2)(c2ccccn2)C1=O (stereo not drawn) [Example 2, N-[2,6 bis(1-methylethyl)phenyl]-2-oxo-3-phenyl-3-(2-pyridinyl)cyclohexanecarboxamide]",6.00
3,"CC(C)c1cccc(C(C)C)c1NC(=O)C1CCCC(Cc2c(CCN(C)C)n(C)c3ccccc23)(c2ccccc2)C1=O (stereo not drawn) [Example 3, N-[2,6 bis(1-methylethyl)phenyl-3-[2-[2-(dimethylamino)ethyl]-1-methyl-1H-indol-3-yl]methyl]-2-oxo-3-phenylcyclohexanecarboxamide]",< 6.00
4,"CC(C)c1cccc(C(C)C)c1NC(=O)C1CCCC(Cc2ccccn2)(c2ccccc2)C1=O (stereo not drawn) [Example 4, N-[2,6-bis(1 methylethyl)phenyl]-2-oxo-3-phenyl-3-(2-pyridinylmethyl)cyclohexanecarboxamide]",6.59
